Series [1] deals with T1, AcrB efflux pump in E. coli BW25113 (Escherichia coli, UniProt P31224).
T1 construct: endogenous in cells; host or cells: E. coli BW25113 (wild type)
Description: Nile red efflux assay (whole-cell competition). Type of series: cell-based. The note with it: for Concentration of compound required for complete inhibition of Nile red efflux (Tefflux50 >200 seconds): E. coli BW25113. On the procedure:
The Nile red assay is adopted from Bohnert et al.[18]. An overnight culture of E. coli strain BW25113 is harvested and is resuspended in 20 mM potassium phosphate buffer (pH 7.0) containing 1 mM MgCl2 (PPB). The cells are adjusted to an A660 of 1.0 in PPB and aliquoted into glass tubes (2 ml each). Carbonylcyanide-m-chlorophenylhydrazone (CCCP; a protonophore that uncouples the electron transport chain and thus inhibits AcrB mediated efflux) is added to a final concentration of 10 µM (5 mM stock solution in 50% DMSO) and incubated for 15 minutes before adding the potential competitor at desired concentrations. Nile red is then added (stock solution of 5 mM in 10% dimethyl formamide-90% ethanol [vol/vol]) to a final concentration of 5 µM. The cell suspension is incubated at room temperature on a shaker for 3 hours. The cells are harvested and resuspended in 2 ml PPB in the presence of the competitor. The cell suspension is aliquoted in a fluorimeter cuvette, to which, 100 µl of 1 M Glucose is added to activate the electron transport chain. The rate of efflux is measured by Tefflux50, it is the time taken for 50% of Nile red to be effluxed out in presence of the compounds. The fluorescence is measured (Excitation 552 nm, Emission 636 nm) for 200 seconds.

For series [2], the target named is T2, AcrB (Escherichia coli, UniProt P31224).
T2 construct: Full length acrB gene was amplified from E. coli; BW25113; His-tag (C); made in house; host or cells: E. coli C43(DE3), plasmid pET21a
Description: Thermal shift assay with CPM dye. On the set-up: species or system E. coli. The settings on record: AcrB vs apo-protein; > 1°C implies binding. The protocol:
AcrB overexpression protocol is adopted from Du. et al.[31]. Full length acrB gene was amplified from E. coli. BW25113 using Forward Primer 5′-[…]-3′ Reverse Primer 5′-[…]-3′ and cloned into the plasmid pET21a. The resultant plasmid that would express AcrB with a C-terminal His-tag is transformed into E. coli strain C43(DE3). The cells are induced on reaching A600 = 0.6 and transferred to 18 °C. The culture is harvested by centrifugation and re-suspended in Buffer A (100 mM Sodium Phosphate, 100 mM NaCl, 10 mM Imidazole, pH = 7.4, 100 µg/ml protease inhibitor cocktail from Roche and 5 U/ml DNase I and 5 mg/ml lysozyme). The cells are lysed at 15000 psi using Emulsiflex and centrifuged at 8000 g for removing cell debris. The membrane is isolated by centrifuging the resultant supernatant at 125000 g (see Coomassie stained SDS-PAGE of the purified protein Figure S9). Membrane solubilisation is done using Buffer A and 1.5% DDM (n-Dodecyl-β-D-Maltoside). Ni-NTA chromatography is used to purify the His-tagged protein and eluted in Buffer A with 300 mM Imidazole and 1.5% DDM.
The assay is performed according to protocols established elsewhere. CPM (N- [4-(7-diethylamino-4-methyl-3-coumarinyl) phenyl] maleimide) is a thiol specific fluorochrome (Excitation 387 nm, Emission 463 nm) and is non-fluorescent in an unbound state. The proteins, on thermal unfolding exposes cysteines allowing the CPM to bind and fluoresce. […]. The thermal denaturation is performed in a fluorimeter that is heated from 25 to 90 °C at a ramp rate of 1 °C/min. The Tm is calculated by analysing the melting profiles using Boltzmann Sigmoid function (GraphPad Prism) and ∆Tm is calculated by measuring the difference between the Tm of inhibitor bound protein and the apo-protein.

The nature of series [3]: Cytotoxicity, MTS assay. In kind it is cell-based. The settings on record: human, A549 cells. On the procedure:
Cytotoxicity of the compounds was evaluated using MTS ((3-(4,5-dimethylthiazol-2-yl)-5-(3-carboxymethoxyphenyl)-2-(4-sulfophenyl)-2H-tetrazolium)) assay. A-549 cells were seeded in a 96 well plate at a density if 1.5 × 10^4 cells/well (100 μL). The cells were cultured in a CO2 incubator at 37 °C. A ten point concentration curve was set up starting from 5 nM to 100 μM with 3 fold dilution along with positive, negative and blank controls. The final concentration of DMSO was maintained at 1% throughout the plate. The compound treatment was carried out for 24 hrs. After incubation MTS reagent was added followed by 30 min incubation. The absorbance was measured at 490 nm. Data analysis was done using GraphPad Prism 6.0.

In series [4] the test system is clinical isolate of E. coli (Strain No. 371). Description: Neutropenic thigh infection, E. coli clinical isolate. In kind it is in vivo, BALB/c mice. The note with it: for Log10CFU Mean Diff. vs. Untreated Controls: Study TI-2014-023, Clinical Isolate N. 371, 100mg/kg per oral; for efficacy in thigh infection model (in words): clinical isolate of E. coli.
The test system of series [5] is Klebsiella pneumoniae ATCC13883. Description: MIC, Klebsiella pneumoniae. Type of series: cell-based. The note with it: for MIC Klebsiella pneumoniae: ATCC13883; for fold lower potency in comparison to E. coli WT MIC: WT K. pneumoniae ATCC strain. On the procedure: (§1) The inoculum used for all the experiments is derived from a single seed lot that is maintained as glycerol stocks at −80 °C and are sub cultured on LB plate for isolated colonies. Single colony of each strain is grown in M9 medium. All test compound stocks and dilutions are prepared in DMSO. Serial two-fold dilutions of compounds are prepared separately, with the concentrations ranging from 2 mg/mL to 0.015 mg/mL. To 150 µl (3–7 × 10^5 CFU/ml) of bacterial culture in 96 well microtitre plates, 3 μL compound from each of the dilutions is added to respective wells to obtain final concentrations ranging from 40 µg/mL to 0.3 µg/mL of the test compounds. Media control, culture control and appropriate reference drug controls are included. […] Growth is monitored by checking absorbance at 600 nm (A600). […] The samples from MIC and above concentrations are plated for MBC (Minimum Bactericidal Concentration). The samples are diluted 1:10 and plated on LB agar plates. […] The killing kinetics is determined by enumerating survivors at various time points following compound exposure. E. coli cells (~10^7 CFU/ml; A600 of 0.1) are treated with various concentrations (40 µg/mL to 0.3 µg/mL) of compounds in a 96-well microtitre plate. At various time intervals (0 to 8 h), 30 μl volumes of treated cultures are serially diluted and plated on LB agar plates. […] Data is expressed as the log10 CFU for each drug treatment.

Series [6] relates to E. coli BW24113. Briefly: In vitro time kill analysis. Type of series: cell-based. The settings on record: for time to 99.9% reduction: at 2–4X MIC; for time to total kill (below the limit of quantitation, LOQ): at 8X MIC. On the procedure: as §1
[7] abbreviates: 1µM compound, time for 50% of Nile red to be effluxed, read for 200 seconds.

Molecules are shown by their SMILES. In brackets after ≈: the same amount, converted by molar mass. Several values for one entry are separate records, joined by “and”; a condition that tells them apart may be missing. Equal values may be shown once. Some results are limits rather than exact numbers.

T1 sequence (P0AE06 25-397): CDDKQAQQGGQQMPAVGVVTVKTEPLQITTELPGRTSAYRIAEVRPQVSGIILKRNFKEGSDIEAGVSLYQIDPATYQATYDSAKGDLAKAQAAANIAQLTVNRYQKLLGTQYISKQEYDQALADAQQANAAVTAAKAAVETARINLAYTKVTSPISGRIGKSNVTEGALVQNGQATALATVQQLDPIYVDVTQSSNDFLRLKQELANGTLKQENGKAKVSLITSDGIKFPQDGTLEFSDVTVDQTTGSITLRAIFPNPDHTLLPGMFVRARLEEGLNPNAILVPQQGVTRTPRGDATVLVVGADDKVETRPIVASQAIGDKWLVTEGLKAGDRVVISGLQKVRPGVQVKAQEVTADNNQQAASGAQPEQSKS
T1 sequence (P31224 whole entry): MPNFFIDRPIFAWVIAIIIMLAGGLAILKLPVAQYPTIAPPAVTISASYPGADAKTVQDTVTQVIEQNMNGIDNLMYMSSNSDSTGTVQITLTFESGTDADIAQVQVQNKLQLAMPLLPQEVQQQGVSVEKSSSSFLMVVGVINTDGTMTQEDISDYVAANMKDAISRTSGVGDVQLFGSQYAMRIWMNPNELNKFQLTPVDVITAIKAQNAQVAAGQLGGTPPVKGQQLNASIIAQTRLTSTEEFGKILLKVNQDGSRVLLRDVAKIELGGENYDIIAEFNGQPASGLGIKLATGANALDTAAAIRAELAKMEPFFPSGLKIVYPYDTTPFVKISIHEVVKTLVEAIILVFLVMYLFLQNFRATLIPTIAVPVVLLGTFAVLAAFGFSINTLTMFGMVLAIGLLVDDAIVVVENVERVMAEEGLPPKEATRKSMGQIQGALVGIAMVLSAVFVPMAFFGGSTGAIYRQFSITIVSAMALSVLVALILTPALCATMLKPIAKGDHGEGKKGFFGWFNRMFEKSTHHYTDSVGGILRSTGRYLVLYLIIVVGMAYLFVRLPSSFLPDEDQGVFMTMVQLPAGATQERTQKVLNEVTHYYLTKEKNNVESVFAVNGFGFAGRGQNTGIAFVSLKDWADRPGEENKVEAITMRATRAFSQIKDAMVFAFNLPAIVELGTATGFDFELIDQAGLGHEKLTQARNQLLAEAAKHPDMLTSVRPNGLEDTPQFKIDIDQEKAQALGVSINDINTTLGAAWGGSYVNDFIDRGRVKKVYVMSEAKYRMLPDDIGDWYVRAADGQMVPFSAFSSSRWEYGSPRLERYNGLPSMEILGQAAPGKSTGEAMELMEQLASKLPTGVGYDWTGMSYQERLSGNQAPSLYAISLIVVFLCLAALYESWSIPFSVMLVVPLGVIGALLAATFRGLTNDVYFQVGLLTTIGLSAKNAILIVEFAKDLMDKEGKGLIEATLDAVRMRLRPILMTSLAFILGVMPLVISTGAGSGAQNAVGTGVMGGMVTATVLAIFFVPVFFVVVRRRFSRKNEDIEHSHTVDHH
T1 sequence (P02930 23-493, further chain): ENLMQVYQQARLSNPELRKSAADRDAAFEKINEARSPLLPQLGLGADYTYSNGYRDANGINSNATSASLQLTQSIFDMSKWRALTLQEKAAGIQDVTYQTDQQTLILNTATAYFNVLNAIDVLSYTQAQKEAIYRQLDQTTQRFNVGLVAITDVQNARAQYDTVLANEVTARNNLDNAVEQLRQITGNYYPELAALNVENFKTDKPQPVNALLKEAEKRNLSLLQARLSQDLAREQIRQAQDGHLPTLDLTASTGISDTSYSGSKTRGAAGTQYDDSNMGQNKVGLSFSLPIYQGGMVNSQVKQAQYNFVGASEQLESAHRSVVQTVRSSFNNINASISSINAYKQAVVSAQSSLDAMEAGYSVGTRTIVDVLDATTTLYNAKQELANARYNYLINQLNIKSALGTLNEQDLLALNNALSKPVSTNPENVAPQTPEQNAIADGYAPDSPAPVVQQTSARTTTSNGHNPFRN
T2 sequence (P31224 whole entry): as the sequence (P31224 whole entry) above

Consider `Cc1sc(NC(=O)c2ccc([N+](=O)[O-])s2)nc1-c1ccccc1` [compound 7, N-(5-Methyl-4-phenylthiazol-2-yl)-5-nitrothiophene-2-carboxamide], for which the Tefflux50 in series [1] (setting [7]) is 88.05 s; in series [1] (9µM compound), 200 s; in series [1] (27µM compound), 200 s; in series [1] (81µM compound), 200 s; in series [1] (100µM compound) it was 200 s; in series [1] (200µM compound), 200 s. For the same molecule, in series [1] (400µM compound), the Tefflux50 worked out at 200 s. Further, the “Concentration of compound required for complete inhibition of Nile red efflux (Tefflux50 >200 seconds)” value in series [1] worked out at 9 µM. The “∆Tm” value in series [2] stood at 4.13 °C.

What is called IC50 is the point on the concentration scale where inhibition reaches its midpoint. In series [3], `O=C(Nc1nc(-c2ccc(F)cc2F)cs1)c1ccc([N+](=O)[O-])s1` [compound 12, N-(4-(2,4-difluorophenyl)thiazol-2-yl)-5-nitrothiophene-2-carboxamide] had an IC50 at 24 h of 16.9 µg/mL (≈ 46 µM). Besides, the “Log10CFU Mean Diff. vs. Untreated Controls” value in series [4] is recorded as 1.907 Log10CFU. The “efficacy in thigh infection model (in words)” value in series [4] is “significantly bactericidal”. In addition, the Tefflux50 came to 66.41 s in series [1] (setting [7]); 67.52 s in series [1] (9µM compound); 67.98 s in series [1] (27µM compound); 68.06 s in series [1] (81µM compound); 68.17 s in series [1] (100µM compound); 68.34 s in series [1] (200µM compound). Also, the Tefflux50 in series [1] (400µM compound) is 68 s and 68.25 s. Further, the “Concentration of compound required for complete inhibition of Nile red efflux (Tefflux50 >200 seconds)” value in series [1] is more than 400 µM. Moreover, the MIC Klebsiella pneumoniae in series [5] worked out at 2.5 µg/mL (≈ 6.81 µM). Moreover, the “fold lower potency in comparison to E. coli WT MIC” value (from here on “fold lower potency in comparison”) in series [5] is given as 4-8 fold. Also, the “∆Tm” value in series [2] was 0.68 °C.

Regarding `O=C(Nc1nc(-c2ccc(F)cc2)cs1)c1ccc([N+](=O)[O-])s1` [compound 15, N-(4-(4-Fluorophenyl)thiazol-2-yl)-5-nitrothiophene-2-carboxamide], the IC50 at 24 h in series [3] is 10.2 µg/mL (≈ 29.2 µM). Further, the “Log10CFU Mean Diff. vs. Untreated Controls” value in series [4] came out at 1.553 Log10CFU. In addition, the “efficacy in thigh infection model (in words)” value in series [4] is listed as “significantly bactericidal”. Further, the Tefflux50 in series [1] (setting [7]) is 61.52 s; in series [1] (9µM compound), 72.51 s; in series [1] (27µM compound), 81.24 s; in series [1] (81µM compound), 124.25 s; in series [1] (100µM compound) it was 200 s; in series [1] (200µM compound) it was 200 s. This molecule registered a Tefflux50 in series [1] (400µM compound) of 200 s. Further, the “Concentration of compound required for complete inhibition of Nile red efflux (Tefflux50 >200 seconds)” value in series [1] is 100 µM. In series [6], the “time to 99.9% reduction” value is 6 to 8 h. Moreover, in series [6], the “time to total kill (below the limit of quantitation, LOQ)” value was 8 h. In series [5], this molecule returned an MIC Klebsiella pneumoniae of 5 µg/mL (≈ 14.3 µM). In addition, the “fold lower potency in comparison” value in series [5] was 4-8 fold. Also, in series [2], the “∆Tm” value is 1.75 °C and < 2 °C.

In turn, `COc1cc(-c2csc(NC(=O)c3ccc([N+](=O)[O-])s3)n2)ccc1Cl` [compound 20, N-(4-(4-chloro-3-methoxyphenyl)thiazol-2-yl)-5-nitrothiophene-2-carboxamide] gave an IC50 at 24 h in series [3] of 8.3 µg/mL (≈ 21 µM). Moreover, the Tefflux50 in series [1] (setting [7]) is 69.24 s; in series [1] (9µM compound) it was 71.14 s; in series [1] (27µM compound), 72.65 s; in series [1] (81µM compound), 104.21 s; in series [1] (100µM compound), 200 s; in series [1] (200µM compound), 200 s. Besides, the Tefflux50 in series [1] (400µM compound) came out at 200 s. Also, the “Concentration of compound required for complete inhibition of Nile red efflux (Tefflux50 >200 seconds)” value in series [1] was 100 µM. Besides, the “time to 99.9% reduction” value in series [6] lay within 6 to 8 h. The “time to total kill (below the limit of quantitation, LOQ)” value in series [6] turned out to be 8 h. In series [5], this molecule came in with an MIC Klebsiella pneumoniae of 10 µg/mL (≈ 25.3 µM). Also, the “fold lower potency in comparison” value in series [5] is given as 4-8 fold. Besides, the “∆Tm” value in series [2] was 1.86 °C and < 2 °C.

For the origin of these results see publication PMC5940854, “Nitrothiophene carboxamides, a novel narrow spectrum antibacterial series: Mechanism of action and Efficacy” (Scientific Reports, 2018).
